According to US11685746B2, “Heteroaryl compounds for treating Huntington's disease” (PTC THERAPEUTICS, INC., priority 2018, dated 2023):
pIC50: −log10 of the molar value.

test system: Endogenous Huntingtin Protein; test: Endogenous Huntingtin Protein Assay (MSD plates, MW1 or MAB2166 capture antibody); type: cell-based; details: Table 1
Protocol: Endogenous Huntingtin Protein Assay
Meso Scale Discovery (MSD) 96-well or 384-well plates were coated overnight at 4° C. with MW1 (expanded polyglutamine) or MAB2166 monoclonal antibody (for capture) at a concentration of 1 μg/mL in PBS (30 μL per well). Plates were then washed three times with 300 μL wash buffer (0.05% Tween-20 in PBS) and blocked (100 μL blocking buffer; 5% BSA in PBS) for 4-5 hours at room temperature with rotational shaking and then washed three times with wash buffer.
Samples (25 μL) were transferred to the antibody-coated MSD plate and incubated overnight at 4° C. After removal of the lysates, the plate was washed three times with wash buffer, and 25 μL of #5656S (Cell signaling; rabbit monoclonal) secondary antibody (diluted to 0.25 μg/mL in 0.05% Tween-20 in blocking buffer) was added to each well and incubated with shaking for 1 Hour at room temperature. Following incubation with the secondary antibody, the wells were rinsed with wash buffer after which 25 μL of goat anti-rabbit SULFO TAG secondary detection antibody (required aspect of the MSD system) (diluted to 0.25 μg/mL in 0.05% Tween-20 in blocking buffer) was added to each well and incubated with shaking for 1 hour at room temperature. After rinsing three times with wash buffer, 150 μL of read buffer T with surfactant (MSD) were added to each empty well, and the plate was imaged on a SI 6000 imager (MSD) according to manufacturers' instructions provided for 96- or 384-well plates.

SMILES	pIC50
Oc1cc(-c2cn[nH]c2)ccc1-c1nc2sc(N3CCNCC3)nc2s1 [Compound 6, 2-[5-(piperazin-1-yl)[1,3]thiazolo[5,4-d][1,3]thiazol-2-yl]-5-(1H-pyrazol-4-yl)phenol]	5.52 to 6.00
CN(c1nc2sc(-c3ccc(-c4cn[nH]c4)c(F)c3F)nc2s1)C1CC(C)(C)NC(C)(C)C1 [Compound 3, 5-[2,3-difluoro-4-(1H-pyrazol-4-yl)phenyl]-N-methyl-N-(2,2,6,6-tetramethylpiperidin-4-yl)[1,3]thiazolo[5,4-d][1,3]thiazol-2-amine]	6.30 to 7.00
Cc1ncc(-c2cnc(-c3nc4sc(N(C)[C@@H]5C[C@H]6CC[C@@H](C5)N6)nc4s3)c(O)c2)s1 [Compound 199, 2-(5-{[(1R,3s,5S)-8-azabicyclo[3.2.1]octan-3-yl](methyl)amino}[1,3]thiazolo[5,4-d][1,3]thiazol-2-yl)-5-(2-methyl-1,3-thiazol-5-yl)pyridin-3-ol]	≥ 7.00
CN(c1nc2sc(-c3ncc(-c4cn[nH]c4)c4cc[nH]c34)nc2s1)C1CCN2CCCC2C1 (stereo not shown) [Compound 123, N-methyl-N-{5-[4-(1H-pyrazol-4-yl)-1H-pyrrolo[2,3-c]pyridin-7-yl][1,3]thiazolo[5,4-d][1,3]thiazol-2-yl}octahydroindolizin-7-amine]	≥ 7.00
CN(c1nc2sc(-c3cnc(Br)n4ccnc34)nc2s1)C1CCNCC1 [Compound 116, 5-(5-bromoimidazo[1,2-c]pyrimidin-8-yl)-N-methyl-N-(piperidin-4-yl)[1,3]thiazolo[5,4-d][1,3]thiazol-2-amine]	6.00 to 6.30
C[C@H]1C[C@@H](Oc2nc3sc(-c4ncc(-c5cn[nH]c5)c5cc[nH]c45)nc3s2)CCN1 [Compound 120, 7-(5-{[(2S,4S)-2-methylpiperidin-4-yl]oxy}[1,3]thiazolo[5,4-d][1,3]thiazol-2-yl)-4-(1H-pyrazol-4-yl)-1H-pyrrolo[2,3-c]pyridine]	≥ 7.00
CCN1CCC(N(C)c2nc3sc(-c4ncc(-c5cn[nH]c5)cc4O)nc3s2)CC1 [Compound 207, 2-{5-[(1-ethylpiperidin-4-yl)(methyl)amino][1,3]thiazolo[5,4-d][1,3]thiazol-2-yl}-5-(1H-pyrazol-4-yl)pyridin-3-ol]	≥ 7.00
CCCN1[C@@H]2CC[C@H]1C[C@H](N(C)c1nc3sc(-n4ccc(-c5cn[nH]c5)cc4=O)nc3s1)C2 [Compound 165, 1-(5-{methyl[(1R,3s,5S)-8-propyl-8-azabicyclo[3.2.1]octan-3-yl]amino}[1,3]thiazolo[5,4-d][1,3]thiazol-2-yl)-4-(1H-pyrazol-4-yl)pyridin-2(1H)-one]	≥ 7.00
CN1CCC(N(C)c2nc3sc(-c4ncc(-c5cn[nH]c5)cc4O)nc3s2)CC1 [Compound 217, 2-{5-[methyl(1-methylpiperidin-4-yl)amino][1,3]thiazolo[5,4-d][1,3]thiazol-2-yl}-5-(1H-pyrazol-4-yl)pyridin-3-ol]	≥ 7.00
CN(c1nn2cc(-c3ccc(-c4cn[nH]c4)cc3O)nc2s1)C1CC2CCC(C1)N2 (stereo not drawn) [Compound 18, 2-{2-[(3-exo)-8-azabicyclo[3.2.1]oct-3-yl(methyl)amino]imidazo[2,1-b][1,3,4]thiadiazol-6-yl}-5-(1H-pyrazol-4-yl)phenol]	6.30 to 7.00
CC1(C)CC(Oc2nc3sc(-c4cnc(-c5cn[nH]c5)cn4)nc3s2)CC(C)(C)N1 [Compound 143, 2-[5-(1H-pyrazol-4-yl)pyrazin-2-yl]-5-[(2,2,6,6-tetramethylpiperidin-4-yl)oxy][1,3]thiazolo[5,4-d][1,3]thiazole]	≥ 7.00
CCn1cc(-c2cnc(-c3nc4sc(N(C)C5CC(C)(C)NC(C)(C)C5)nc4s3)c(O)c2)cn1 [Compound 50, 5-(1-ethyl-1H-pyrazol-4-yl)-2-{5-[methyl(2,2,6,6-tetramethylpiperidin-4-yl)amino][1,3]thiazolo[5,4-d][1,3]thiazol-2-yl}pyridin-3-ol]	6.30 to 7.00
C[C@@H]1C[C@@H](Oc2nc3sc(-c4ccc(-c5cn[nH]c5)c5nc[nH]c45)nc3s2)CCN1 [Compound 68, 7-(5-{[(2R,4S)-2-methylpiperidin-4-yl]oxy}[1,3]thiazolo[5,4-d][1,3]thiazol-2-yl)-4-(1H-pyrazol-4-yl)-1H-benzimidazole]	≥ 7.00
CC1CC(N(C)c2nc3sc(-c4ccc(-c5cn[nH]c5)c5cn[nH]c45)nc3s2)CCN1C (stereo not shown) [Compound 108, N-(1,2-dimethylpiperidin-4-yl)-N-methyl-5-[4-(1H-pyrazol-4-yl)-1H-indazol-7-yl][1,3]thiazolo[5,4-d][1,3]thiazol-2-amine]	≥ 7.00
Cn1cc2cc(-c3cn4nc(C5=CC6CCC(C5)N6)sc4n3)cc(C#N)c2n1 (stereo not shown) [Compound 33, 5-[2-(8-azabicyclo[3.2.1]oct-2-en-3-yl)imidazo[2,1-b][1,3,4]thiadiazol-6-yl]-2-methyl-2H-indazole-7-carbonitrile]	5.52 to 6.00
COc1cc(-c2cnc(-c3nc4sc(N(C)[C@H]5C[C@]6(C)CC[C@](C)(C5)N6)nc4s3)cn2)ncn1 [Compound 65, N-[(1R,3s,5S)-1,5-dimethyl-8-azabicyclo[3.2.1]octan-3-yl]-5-[5-(6-methoxypyrimidin-4-yl)pyrazin-2-yl]-N-methyl[1,3]thiazolo[5,4-d][1,3]thiazol-2-amine]	6.30 to 7.00
CN(c1nc2sc(-c3cnc(-n4cccn4)cn3)nc2s1)[C@H]1C[C@]2(C)CC[C@](C)(C1)N2 [Compound 104, N-[(1R,3s,5S)-1,5-dimethyl-8-azabicyclo[3.2.1]octan-3-yl]-N-methyl-5-[5-(1H-pyrazol-1-yl)pyrazin-2-yl][1,3]thiazolo[5,4-d][1,3]thiazol-2-amine]	6.00 to 6.30
CN(c1nc2sc(-n3ccccc3=O)nc2s1)[C@@H]1C[C@H]2CC[C@@H](C1)N2 [Compound 187, 1-(5-{[(1R,3s,5S)-8-azabicyclo[3.2.1]octan-3-yl](methyl)amino}[1,3]thiazolo[5,4-d][1,3]thiazol-2-yl)pyridin-2(1H)-one]	6.30 to 7.00
CN(c1nc2sc(-c3ncc(-c4cn[nH]c4)c4cc[nH]c34)nc2s1)[C@@H]1C[C@H]2CC[C@@H](C1)N2 [Compound 184, N-[(1R,3s,5S)-8-azabicyclo[3.2.1]octan-3-yl]-N-methyl-5-[4-(1H-pyrazol-4-yl)-1H-pyrrolo[2,3-c]pyridin-7-yl][1,3]thiazolo[5,4-d][1,3]thiazol-2-amine]	≥ 7.00
CN(c1nc2sc(-c3cc(F)c(-c4cn[nH]c4)c(F)c3)nc2s1)C1CCNCC1 [Compound 21, 5-[3,5-difluoro-4-(1H-pyrazol-4-yl)phenyl]-N-methyl-N-(piperidin-4-yl)[1,3]thiazolo[5,4-d][1,3]thiazol-2-amine]	5.52 to 6.00
CN(c1nc2sc(-c3ncc(-c4cnsc4)cc3O)nc2s1)C1CCNCC1 [Compound 216, 2-{5-[methyl(piperidin-4-yl)amino][1,3]thiazolo[5,4-d][1,3]thiazol-2-yl}-5-(1,2-thiazol-4-yl)pyridin-3-ol]	≥ 7.00
CN(c1nc2sc(-c3ncc(-c4ccn(C)c(=O)c4)cc3O)nc2s1)[C@@H]1C[C@H]2CC[C@@H](C1)N2 [Compound 191, 6-(5-{[(1R,3s,5S)-8-azabicyclo[3.2.1]octan-3-yl](methyl)amino}[1,3]thiazolo[5,4-d][1,3]thiazol-2-yl)-5-hydroxy-1′-methyl[3,4′-bipyridin]-2′(1′H)-one]	≥ 7.00
Oc1cc(-c2cn[nH]c2)cnc1-c1nc2sc(N3CC4(CCCNC4)C3)nc2s1 [Compound 192, 2-[5-(2,6-diazaspiro[3.5]nonan-2-yl)[1,3]thiazolo[5,4-d][1,3]thiazol-2-yl]-5-(1H-pyrazol-4-yl)pyridin-3-ol]	≥ 7.00
Cc1cn2cc(-c3nn4cc(C5CCNCC5)nc4s3)cc(F)c2n1 [Compound 30, 8-fluoro-2-methyl-6-[6-(piperidin-4-yl)imidazo[2,1-b][1,3,4]thiadiazol-2-yl]imidazo[1,2-a]pyridine]	6.30 to 7.00
CN(c1nc2sc(-n3ccc(-c4cn[nH]c4)cc3=O)nc2s1)[C@@H]1C[C@H]2CC[C@@H](C1)N2 [Compound 195, 1-(5-{[(1R,3s,5S)-8-azabicyclo[3.2.1]octan-3-yl](methyl)amino}[1,3]thiazolo[5,4-d][1,3]thiazol-2-yl)-4-(1H-pyrazol-4-yl)pyridin-2(1H)-one]	≥ 7.00
Oc1cc(-c2cn[nH]c2)ccc1-c1nc2sc(N3CC4(CC5CCC(C4)N5)C3)nc2s1 [Compound 198, 5-(1H-pyrazol-4-yl)-2-[5-(spiro[8-azabicyclo[3.2.1]octane-3,3′-azetidin]-1′-yl)[1,3]thiazolo[5,4-d][1,3]thiazol-2-yl]phenol]	6.00 to 6.30
C[C@@H]1C[C@@H](N(C)c2nc3sc(-c4ncc(-c5cn[nH]c5)c5cc[nH]c45)nc3s2)CCN1 [Compound 87, N-methyl-N-[(2R,4S)-2-methylpiperidin-4-yl]-5-[4-(1H-pyrazol-4-yl)-1H-pyrrolo[2,3-c]pyridin-7-yl][1,3]thiazolo[5,4-d][1,3]thiazol-2-amine]	≥ 7.00
CN(c1nc2sc(-c3ncc(-c4cn[nH]c4)nn3)nc2s1)C1CC(C)(C)NC(C)(C)C1 [Compound 100, N-methyl-5-[6-(1H-pyrazol-4-yl)-1,2,4-triazin-3-yl]-N-(2,2,6,6-tetramethylpiperidin-4-yl)[1,3]thiazolo[5,4-d][1,3]thiazol-2-amine]	≥ 7.00
